Starred links: 1 amine or outer side, 2 acyl side, 3 side chain; linkers in the order of their positions; H or OH if unused. Non-standard residues stand in square brackets, D forms with d. Residues, ends and D or L forms follow the SMILES beside them. *: point of attachment. Pro(3S,4R-methano) = O=C(O)[C@H]1NC[C@@H]2C[C@@H]21; X3 = C=CCCC(N[*:1])C(=O)C(=O)[*:2]; Hyp = O=C(O)[C@@H]1C[C@@H](O)CN1; X2 = CCCC(N[*:1])C(=O)C(=O)[*:2]; Chg = N[C@H](C(=O)O)C1CCCCC1; Phg = N[C@H](C(=O)O)c1ccccc1; Tle = CC(C)(C)[C@H](N)C(=O)O; Boc = CC(C)(C)OC(=O)*; CO = O=C([*:1])[*:2]; X1 = CC1(N*)CCCCC1; tBu = CC(C)(C)*
Assays:
melanoma A375 tumors = melanoma A375 tumors implanted into the left ventricle of the heart; cited from earlier work
Human Liver Cathepsin L = biological target: T1, Human Liver Cathepsin L (Homo sapiens, UniProt P07711); test: Cathepsin L inhibition assay (kinetic, Z-Phe-Arg-pNA substrate); assay type: biochemical; details: Z-Phe-Arg-pNA 120 μM, enzyme 12 nM, pH 5.5, read at 410 nm
T1 construct: purchased Calbiochem 219402
Procedure: Cathepsin Assay Protocols:
• 1. 96-well Round or V-bottom microplates for dilutions • 2. 96-well COSTAR UV microplates for assay (COSTAR cat.#3635) • 3. Bio-Spin 6 Chromatography Columns (BIO-RAD cat.#732-6002). • 4. 12-75 mm test tubes • 5. Falcon 50 ml tubes • 6. Falcon 14 ml tubes • 7. 1.5 ml eppendorf tube • 8. ≦10 ml buffer reservoir Reagents: • 1. Enzyme: Cathepsin G, M.W.23,500, 10 μM stock. • 2. Substrate:Suc-Ala-Ala-Pro-Phe-pNA, M.W. 624.65, prep. 100 mM [62.465 mg/ml] stock. • 3. Buffer: [50 mM HEPES, 500 mM NaCl, 5 μM EDTA, pH 7.14], 5 μM DTT Instrument Settings: SpectraMax Plus • 1. Kinetic assay reading@405 nm • 2. Read interval: 30 seconds • 3. Time: 1 hour • 4. OD Min: −0.001 • 5. OD Max: 0.5 • 6. Data Mode: Absorbance • 7. e405=194.078 μM/O.D. Procedure: • 1. Add 73 μl of buffer to all wells. • 2. Add […] of buffer to (−E) controls. • 3. Add 7 μl of sample and/or DMSO for controls to appropriate wells. • 4. Prep. substrate: 100 mM (62.465 mg/ml) stock in 100% DMSO. • 5. Dilute 1:20 in buffer. 75 μl in 1.425 ml. 5 mM final. • 6. Add 20 μl of 5 mM substrate to all wells. 500 μM final. • 7. Dilute enzyme (1:50) in buffer; Add 120 μl to 5,880 μl buffer. 2×[200 nM] final. • 8. Add 100 μl of 2× [200 nM] enzyme to assigned wells, except (−E) controls. [100 nM] final. • 11. Vortex 20 seconds. Read@ 405 nM every 30 seconds for 1 hour on SpectraMax Plus • Endpoint assay reading plate@ 600 nM. Used for the detection of precipitation. Cathepsin H: Materials: • 1. 96-well Round or V-bottom microplates for dilutions • 2. 96-well COSTAR UV microplates for assay (COSTAR cat.#3635) • 3. Bio-Spin 6 Chromatography Columns (BIO-RAD cat.#732-6002) • 4. 12-75 mm test tubes • 5. Falcon 50 ml tubes • 6. Falcon 14 ml tubes • 7. 1.5 ml eppendorf tube • 8. ≧10 ml buffer reservoir Reagents: • 1. Enzyme: Cathepsin H, M.W.28,000, 9.07 μM stock. • 2. Substrate:H-Arg-pNA, M.W. 367.2, prep. 50 mM [18.36 mg/ml] stock. • 3. Buffer: [100 mM NaP04, 1 mM EDTA, 1 mM DTT, pH 6.5 Instrument Settings: SpectraMax Plus • 1. Kinetic assay reading@410 nM • 2. Read interval: 30 seconds • 3. Time: 1 hour • 4. OD Min: −0.001 • 5. OD Max: 0.05 • 6. Data Mode: Absorbance • 7. e410=188.415 μM/O.D. Km=108±5 μM Procedure: • 1. Prep. substrate: 50 mM (18.36 mg/ml) stock in 100% DMSO. • 2. Add 73 μl of buffer to all wells. • 3. Add 7 μl of sample to appropriate wells: a.) 100% DMSO for (+E) & (−E) controls. • 4. Add 100 μl of buffer to (−E) controls. • 5. Dilute substrate (1:20) in buffer; Add 140 μl to 2.66 ml buffer while vortexing. [2.5 mM] final. • 6. Add 20 μl of substrate to all wells. Vortex 3-5 seconds. [250 μM] final. • 7. Dilute enzyme (1:64.8) in buffer; Add 179 μl to 11.418 ml buffer. 2× [140 nM] final. • 8. Add 100 μl of 2× [140 nM] enzyme to assigned wells, except (−E) controls. [70 nM] final. • 9. Read@410 nM every 30 seconds for 1 hour on SpectraMax Plus Cathepsin L: Materials: • 1. 96-well Round or V-bottom microplates for dilutions • 2. 96-well COSTAR UV microplates for assay (COSTAR cat.#3635) • 3. Falcon 50 ml tubes • 4. Falcon 14 ml tubes • 5. 1.5 ml eppendorf tube • 6. 10 ml buffer reservoir Reagents: • 1. Enzyme: Calbiochem #219402: Cathepsin L, M.W.29,000, 11.62 μM stock. Lot#B45683 • 2. Substrate: Bachem #L-1242: Z-Phe-Arg-pNA, M.W. 612.09, prep. 4.8 mM [2.938 mg/ml] stock in 100% DMSO. • 3. Buffer: [100 mM NaP04, 1 mM EDTA, pH 5.5] Supplement buffer w/1 mM DTT, day of assay. Experiment #1: • Instrument settings: SpectraMax Plus microtiter plate reader (Molecular Devices, Sunnydale, Calif.) • 1. Kinetic assay reading@410 nM • 2. Read interval: 30 seconds • 3. Time: 1 hour • 4. OD Min: −0.001 • 5. OD Max: 0.05 • 6. Data Mode: Absorbance • 7. ε410=161.311 μM/O.D. Km=56±8 μM Procedure: • 1. Add 88 μl of buffer to all wells. • 2. Add 7 μl of sample or 100% DMSO to appropriate wells. • 3. Add 100 μl of buffer to (−E) controls. • 5. Add 5 μ 4.8 mM] substrate to all wells. [120 μM] final. • 6. Vortex 3-5 seconds. • 7. Dilute enzyme (1:483.87) in buffer; Add 24.8 μl to 12,000 μl buffer. 2×[24 nM] final. • 8. […]

T1 sequence (P07711 114-288 limits assumed): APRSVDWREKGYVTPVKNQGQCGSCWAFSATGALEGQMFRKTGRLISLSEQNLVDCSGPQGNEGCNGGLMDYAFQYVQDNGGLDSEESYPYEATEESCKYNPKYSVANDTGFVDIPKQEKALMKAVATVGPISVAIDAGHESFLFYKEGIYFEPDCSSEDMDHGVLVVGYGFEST
T1 sequence (P07711 292-333 limits assumed): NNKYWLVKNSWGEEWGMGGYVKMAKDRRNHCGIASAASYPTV

Ki (Human Liver Cathepsin L) | Compound | distant bone metastasis to the femur and tibia (melanoma A375 tumors)
20 nM | CC(C)(C)OC(=O)N[C@H](C(=O)N1c2ccccc2C[C@H]1C(=O)NC(CC1CC1)C(=O)C(N)=O)C1CCCCC1 (stereo partly shown) | 
40 nM | C=CCNC(=O)C(=O)[C@H](CCC1CC1)NC(=O)[C@@H]1[C@@H]2[C@H](CN1C(=O)[C@@H](NC(=O)NC1(CS(=O)(=O)C(C)(C)C)CCCCC1)C(C)(C)C)C2(C)C [drawing 669] | 
97 nM | CN(C)C(=O)[C@@H](NC(=O)CNC(=O)C(=O)C(CC1CC1)NC(=O)[C@@H]1[C@H]2CC(C)(C)O[C@H]2CN1C(=O)[C@@H](NC(=O)OC(C)(C)C)C1CCCCC1)c1ccccc1 (stereo partly shown) | 
76 nM | CC(C)(C)NC(=O)N[C@H](C(=O)N1C[C@H]2[C@@H]([C@H]1C(=O)NC(CC1CCC1)C(=O)C(N)=O)C2(C)C)C(C)(C)C (stereo partly shown) | 
45 nM | C=CCNC(=O)C(=O)[C@H](CCC1CC1)NC(=O)[C@@H]1[C@@H]2[C@H](CN1C(=O)[C@@H](NC(=O)NC1(CS(=O)(=O)C(C)(C)C)CCCCC1)C(C)(C)C)C2(C)C [drawing 670] | 
270 nM | C=CCCC(NC(=O)[C@@H]1[C@H]2C[C@H]2CN1C(=O)[C@@H](NC(=O)OC(C)(C)C)C1CCCCC1)C(=O)C(=O)NCC(=O)N[C@H](C(=O)N(C)C)c1ccccc1 (stereo partly drawn) (Boc-[Chg][Pro(3S,4R-methano)][X3]G[Phg]-NMe2) | 
80 nM | CCCC[C@H](NC(=O)[C@@H]1[C@@H]2[C@H](CN1C(=O)[C@@H](NC(=O)NC1([C@H]3CCCS3(=O)=O)CCCCC1)C(C)(C)C)C2(C)C)C(=O)C(=O)NC1CC1 | 
24 nM | CC1([C@H](NC(=O)NC2(C3CCCS3(=O)=O)CCCCC2)C(=O)N2C[C@H]3[C@@H]([C@H]2C(=O)N[C@@H](CCC2CC2)C(=O)C(=O)NC2CC2)C3(C)C)CCCCC1 (stereo partly shown) | 
40 nM | CCCC[C@H](NC(=O)[C@@H]1[C@@H]2[C@H](CN1C(=O)[C@@H](NC(=O)NC1([C@H]3CCN(C)S3(=O)=O)CCCCC1)C(C)(C)C)C2(C)C)C(=O)C(=O)NC1CC1 | 
14 nM | CC(C)(C)OC(=O)N[C@H](C(=O)N1CC2CCCC2[C@H]1C(=O)NC(CC1CC1)C(=O)C(N)=O)C1CCCCC1 (stereo partly shown) | 
120 nM | CC(C)C[C@@H](C(=O)NC(CC1CCC1)C(=O)C(N)=O)N1CCCCCC[C@H](NC(=O)N[C@@H](C(=O)OC(C)C)C(C)(C)C)C1=O (stereo partly shown) | 

More lines, now with the values behind:

Compound | Ki (Human Liver Cathepsin L) | distant bone metastasis to the femur and tibia (melanoma A375 tumors)
CN(C)C(=O)[C@H](Cc1ccccc1)NC(=O)[C@H]1O[C@@H]1C(=O)NCCc1ccccn1 [CLIK-148] |  | reduced distant bone metastasis
C=CCNC(=O)C(=O)[C@@H]1CCCCCCCCC[C@H](NC(=O)N[C@H](CN(C)S(=O)(=O)N(C)C)C(C)(C)C)C(=O)N2C[C@H]3[C@@H]([C@H]2C(=O)N1)C3(C)C | 370 nM | 
CC(=O)N[C@@H](CC(C)C)C(=O)N[C@@H](CC(C)C)C(=O)N[C@H](C=O)CCCNC(=N)N [drawing 689] | 8 nM | 
CCCNC(=O)C(=O)[C@@H]1CCCCCCCCC[C@H](NC(=O)NC2(CS(=O)(=O)C(C)(C)C)CCCCC2)C(=O)N2C[C@H]3[C@@H]([C@H]2C(=O)N1)C3(C)C | 330 nM | 
CCCC(NC(=O)[C@@H]1C[C@@H](OC(C)(C)C)CN1C(=O)[C@@H](NC(=O)NC1(C)CCCCC1)C(C)(C)C)C(=O)C(=O)NCC(=O)N[C@H](C(=O)N(C)C)c1ccccc1 (stereo partly shown) ({X1-CO}-[Tle][Hyp](tBu)[X2]G[Phg]-NMe2) | 170 nM | 
C=CCNC(=O)C(=O)[C@H](CCCC)NC(=O)[C@@H]1[C@@H]2[C@H](CN1C(=O)[C@@H](NC(=O)NC1([C@H]3CCCS3(=O)=O)CCCCC1)C(C)(C)C)C2(C)C [drawing 681] | 140 nM | 
CCCC[C@H](NC(=O)[C@@H]1[C@@H]2[C@H](CN1C(=O)[C@@H](NC(=O)NC1(CS(=O)(=O)C(C)(C)C)CCCCC1)C(C)(C)C)C2(C)C)C(=O)C(=O)NC1CC1 [drawing 652] | 7 nM | 
COc1ccc2c(O[C@@H]3C[C@H]4C(=O)N[C@]5(C(=O)O)CC5/C=C\CCCCC[C@H](NC(=O)OC5CCCC5)C(=O)N4C3)cc(-c3csc(NC(C)C)n3)nc2c1 (stereo partly shown) | 38 nM | 
C=CCNC(=O)C(=O)[C@@H]1CCCCCCCCC[C@H](NC(=O)NC2(CS(=O)(=O)C(C)(C)C)CCCCC2)C(=O)N2C[C@H]3[C@@H]([C@H]2C(=O)N1)C3(C)C [drawing 653] | 10 nM | 
CN(C)C(=O)c1nc(CNC(=O)C(=O)C(CC2CCC2)NC(=O)[C@@H]2[C@@H]3[C@H](CN2C(=O)[C@@H](NC(=O)NC(C)(C)C)C(C)(C)C)C3(C)C)sc1-c1ccccc1 (stereo partly shown) | 190 nM | 
CCCC(NC(=O)[C@H](CC(C)C)NC(=O)C(NC(=O)OC(C)(C)C)C(C)(C)C)C(=O)C(N)=O (stereo partly shown) | 20 nM | 
CCC[C@H](NC(=O)[C@@H]1[C@@H]2[C@H](CN1C(=O)[C@@H](NC(=O)NC1([C@H]3CCCS3(=O)=O)CCCCC1)C1(C)CCCCC1)C2(C)C)C(=O)C(=O)NC1CC1 | 31 nM | 
CCCC(NC(=O)[C@@H]1C[C@@H]2CN1C(=O)C(C1CCCCC1)NC(=O)Cc1cccc(c1)OCCCC(C)(C)C2)C(=O)C(N)=O (stereo partly shown) | 17 nM | 
C=CCNC(=O)C(=O)[C@@H]1CCCCCCCCC[C@H](NC(=O)NC2(CS(=O)(=O)C(C)(C)CC)CCCCC2)C(=O)N2C[C@H]3[C@@H]([C@H]2C(=O)N1)C3(C)C | 230 nM | 
CCCC[C@H](NC(=O)[C@@H]1[C@@H]2[C@H](CN1C(=O)[C@@H](NC(=O)NC1(CS(=O)(=O)C(C)(C)C)CCCCC1)C(C)(C)C)C2(C)C)C(=O)C(=O)NC1CC1 [drawing 667] | 40 nM | 
CCCC[C@H](NC(=O)[C@@H]1[C@@H]2[C@H](CN1C(=O)[C@@H](NC(=O)NC1(CS(=O)(=O)C(C)C)CCCCC1)C(C)(C)C)C2(C)C)C(=O)C(=O)NC1CC1 | 38 nM | 
C=CCNC(=O)C(=O)C(CCC)NC(=O)[C@@H]1[C@@H]2[C@H](CN1C(=O)[C@@H](NC(=O)N[C@H](CN1CCCCC1=O)C(C)(C)C)C1Cc3ccccc3C1)C2(C)C (stereo partly shown) | 140 nM | 

Source: patent publication US20060252698A1, “Compounds for inhibiting cathepsin activity” (priority 2005, published 2006)
